Results reported in patent US12396459B2, “Synergistically effective herbicide composition comprising pyridate and at least one defined 4-HPPD inhibitor” (BELCHIM CROP PROTECTION NV, priority 2018, dated 2025).

How the values were obtained:
Assay type in all cases: in vivo
Cirsium arvense = assay: Field trial post-emergence in maize: CIRAR; conditions: # = 1, g a.c./ha: PYR 300, MES 100, PYR + MES 300 + 90
Procedure: (§1) Herbicidal activity of herbicide compositions according to the first aspect of the present invention with regard to different types of unwanted vegetation was determined during trials performed on test fields (field trials). Individual compositions comprising pyridate and individual compositions comprising a defined 4-HPPD inhibitor are compared with a herbicide composition according to the invention comprising both pyridate and a defined 4-HPPD inhibitor. The expected activity of the combination of the active compounds pyridate and a defined 4-HPPD inhibitor is calculated according to above mentioned calculation method by Colby, in order to evaluate a synergistic effect between pyridate and a defined 4-HPPD inhibitor.
(§2) Herbicidal activity was determined by applying herbicide compositions on emerged unwanted vegetation on fields where maize was cultivated. Pyridate and a defined 4-HPPD inhibitor were applied as a tank mixture by mixing these active compounds prior to use in a spray tank. The corresponding mixture was in the form of a spray liquor. Besides, spray liquors of individual compositions comprising pyridate and of individual compositions comprising a defined 4-HPPD inhibitor were used. Test plants of unwanted vegetation with a growth stage corresponding to BBCH 10-18 (according to the extended BBCH-scale) were sprayed with the active compound preparations such that particular desired amounts of active compounds are applied per unit area. Spray liquor was diluted with water to arrive at an application volume of 50 to 450 L/ha. At a specified number of days after application (DAA), the degree of damage to the unwanted vegetation is rated in % of plants of unwanted vegetation that were killed, which was assessed by visually controlling the plants.

Digitaria sanguinalis [1] = assay: Field trial post-emergence in maize: DIGSA; conditions: g a.c./ha: PYR 300, MES 100, PYR + MES 300 + 90
Procedure: as §1, §2

Galinsoga parviflora = assay: Field trial post-emergence in maize: GASPA; conditions: 31-48 DAA; # = 3; g a.c./ha: PYR 300, MES 100, PYR + MES 300 + 90
Procedure: as §1
(§3) Herbicidal activity was determined by applying herbicide compositions on emerged unwanted vegetation on fields where maize was cultivated. Pyridate and a defined 4-HPPD inhibitor were applied as a tank mixture by mixing these active compounds prior to use in a spray tank. The corresponding mixture was in the form of a spray liquor. […] At a specified number of days after application (DAA), the degree of damage to the unwanted vegetation is rated in % of plants of unwanted vegetation that were killed, which was assessed by visually controlling the plants.

Geranium sp. = assay: Field trial post-emergence in maize: GERSS; conditions: # = 1, g a.c./ha: PYR 300, MES 100, PYR + MES 300 + 90
Procedure: as §1, §2

Poa annua [2] = assay: Field trial post-emergence in maize: POAAN; conditions: for herbicidal effect (h.e.): g a.c./ha: PYR 300, MES 100, PYR + MES 300 + 90
Procedure: as §1, §2

Fallopia convolvulus = assay: Field trial post-emergence in maize: POLCO
Procedure: as §1, §2

Solanum nigrum = assay: Field trial post-emergence in maize: SOLNI; conditions: for herbicidal effect (h.e.): g a.c./ha: PYR 300, MES 100, PYR + MES 300 + 90
Procedure: as §1, §2

Stachys arvensis = assay: Field trial post-emergence in maize: STAAR; conditions: 7-14 DAA; # = 1; g a.c./ha: PYR 300, MES 100, PYR + MES 300 + 90
Procedure: as §1, §3

Thlaspi arvense = assay: Field trial post-emergence in maize: THLAR; conditions: # = 1, g a.c./ha: PYR 300, MES 100, PYR + MES 300 + 90
Procedure: as §1, §2

Geranium dissectum = assay: Examples 6-8 herbicidal effect: GERDI; conditions: 7 DAA
Poa annua [3] = assay: Examples 6-8 herbicidal effect: POAAN; conditions: 7 DAA
Digitaria sanguinalis [4] = assay: Examples 6-8 herbicidal effect: DIGSA; conditions: 7 DAA
[5] = test system: unwanted vegetation (UVEG); assay: Field trials Examples 1-5 (incl. Table 1), post-emergence on unwanted vegetation in maize; conditions: 14-20 DAA
Procedure: as §1, §2

Galium aparine = assay: Field trial post-emergence in maize: GALAP
Procedure: as §1, §2
(§4) Example 1 concerns a herbicide composition comprising a combination of pyridate and mesotrione, which was applied post-emergence on unwanted vegetation on a field where maize was cultivated, according to the test conditions mentioned above.

Kickxia elatine = assay: Field trial post-emergence in maize: KICEL
Procedure: as §1, §2, §4

Lamium purpureum = assay: Field trial post-emergence in maize: LAMPU
Procedure: as §1, §2, §4

Mercurialis annua = assay: Field trial post-emergence in maize: MERAN
Procedure: as §1, §2, §4

Viola arvensis = assay: Field trial post-emergence in maize: VIOAR
Procedure: as §1, §2, §4

[6] = g a.c./ha: PYR 10, TEM 22, PYR + TEM 10 + 100
[7] = g a.c./ha: PYR 300, PYR + MES 300 + 80
[8] = g a.c./ha: PYR 300, SCT 300, PYR + SCT 300 + 300
[9] = g a.c./ha: PYR 300, TEM 100, PYR + TEM 300 + 100
[10] = g a.c./ha: PYR 450, SCT 450, PYR + SCT 300 + 450
[11] = g a.c./ha: PYR 600, PYR + SCT 600 + 300
[12] = g a.c./ha: PYR 900, TEM 44, PYR + TEM 900 + 44

## CCCCCCCCSC(=O)Oc1cc(Cl)nnc1-c1ccccc1 [PYR, (6-chloro-3-phenylpyridazin-4-yl) octylsulfanylformate]
Cirsium arvense; 7-14 DAA
  herbicidal effect (h.e.): 23%
Cirsium arvense; 31-48 DAA
  herbicidal effect (h.e.): 49%
Digitaria sanguinalis [1]; 7-14 DAA, # = 2
  herbicidal effect (h.e.): 30%
Digitaria sanguinalis [1]; 18-28 DAA, # = 2
  herbicidal effect (h.e.): 24%
Digitaria sanguinalis [1]; 31-48 DAA, # = 1
  herbicidal effect (h.e.): 48%
Galinsoga parviflora
  herbicidal effect (h.e.): 40%
Geranium sp.; 7-14 DAA
  herbicidal effect (h.e.): 13%
Geranium sp.; 18-28 DAA
  herbicidal effect (h.e.): 0%
Geranium sp.; 31-48 DAA
  herbicidal effect (h.e.): 0%
Poa annua [2]; 7-14 DAA, # = 2
  herbicidal effect (h.e.): 25%
Poa annua [2]; 18-28 DAA, # = 3
  herbicidal effect (h.e.): 17%
Poa annua [2]; 31-48 DAA, # = 2
  herbicidal effect (h.e.): 17%
Poa annua [2]; POAAN 14-20 DAA 300 g a.c./ha
  PYR h.e.: 7%
Poa annua [2]; POAAN 14-20 DAA 600 g a.c./ha
  PYR h.e.: 17%
Poa annua [2]; POAAN 14-20 DAA 900 g a.c./ha
  PYR h.e.: 36%
Poa annua [2]; POAAN 24-31 DAA 300 g a.c./ha
  PYR h.e.: 5%
Poa annua [2]; POAAN 24-31 DAA 600 g a.c./ha
  PYR h.e.: 13%
Poa annua [2]; POAAN 24-31 DAA 900 g a.c./ha
  PYR h.e.: 28%
Fallopia convolvulus; 7-14 DAA, # = 5, g a.c./ha: PYR 300, MES 100, PYR + MES 300 + 90
  herbicidal effect (h.e.): 26%
Fallopia convolvulus; 13-14 DAA, # = 1, g a.c./ha: PYR 450, MES 144, PYR + MES 450 + 144
  herbicidal effect (h.e.): 23%
Fallopia convolvulus; 18-28 DAA, # = 8, g a.c./ha: PYR 300, MES 100, PYR + MES 300 + 90
  herbicidal effect (h.e.): 32%
Fallopia convolvulus; 31-48 DAA, # = 8, g a.c./ha: PYR 300, MES 100, PYR + MES 300 + 90
  herbicidal effect (h.e.): 27%
Fallopia convolvulus; POLCO 14-20 DAA 300 g a.c./ha
  PYR h.e.: 31%
Fallopia convolvulus; POLCO 14-20 DAA 600 g a.c./ha
  PYR h.e.: 34%
Fallopia convolvulus; POLCO 14-20 DAA 900 g a.c./ha
  PYR h.e.: 47%
Fallopia convolvulus; POLCO 24-31 DAA 300 g a.c./ha
  PYR h.e.: 29%
Fallopia convolvulus; POLCO 24-31 DAA 600 g a.c./ha
  PYR h.e.: 29%
Fallopia convolvulus; POLCO 24-31 DAA 900 g a.c./ha
  PYR h.e.: 43%
Solanum nigrum; 18-28 DAA, # = 7
  herbicidal effect (h.e.): 58%
Solanum nigrum; 31-48 DAA, # = 6
  herbicidal effect (h.e.): 55%
Solanum nigrum; SOLNI 14-20 DAA 300 g a.c./ha
  PYR h.e.: 75%
Solanum nigrum; SOLNI 14-20 DAA 600 g a.c./ha
  PYR h.e.: 88%
Stachys arvensis
  herbicidal effect (h.e.): 35%
Thlaspi arvense; 7-14 DAA
  herbicidal effect (h.e.): 28%
Thlaspi arvense; 18-28 DAA
  herbicidal effect (h.e.): 19%
Geranium dissectum; [6]
  herbicidal effect (h.e.): 0%
Geranium dissectum; [7]
  herbicidal effect (h.e.): 5%
Geranium dissectum; [8]
  herbicidal effect (h.e.): 15%
Geranium dissectum; [9]
  herbicidal effect (h.e.): 5%
Geranium dissectum; [10]
  herbicidal effect (h.e.): 30%
Geranium dissectum; [11]
  herbicidal effect (h.e.): 15%
Geranium dissectum; [12]
  herbicidal effect (h.e.): 10%
Poa annua [3]; [6]
  herbicidal effect (h.e.): 0%
Poa annua [3]; [7]
  herbicidal effect (h.e.): 3%
Poa annua [3]; [8]
  herbicidal effect (h.e.): 2%
Poa annua [3]; [9]
  herbicidal effect (h.e.): 10%
Poa annua [3]; [10]
  herbicidal effect (h.e.): 2%
Poa annua [3]; [11]
  herbicidal effect (h.e.): 0%
Poa annua [3]; [12]
  herbicidal effect (h.e.): 0%
Digitaria sanguinalis [4]; [6]
  herbicidal effect (h.e.): 0%
Digitaria sanguinalis [4]; [7]
  herbicidal effect (h.e.): 0%
Digitaria sanguinalis [4]; [8]
  herbicidal effect (h.e.): 0%
Digitaria sanguinalis [4]; [9]
  herbicidal effect (h.e.): 5%
Digitaria sanguinalis [4]; [10]
  herbicidal effect (h.e.): 0%
Digitaria sanguinalis [4]; [11]
  herbicidal effect (h.e.): 5%
Digitaria sanguinalis [4]; [12]
  herbicidal effect (h.e.): 0%
[5]; VIOAR (Viola arvensis), # = 3, first VIOAR block (r259-264), PYR 900 g a.c./ha
  PYR h.e. (%): 50%
[5]; VIOAR (Viola arvensis), # = 3, second VIOAR block (r265-272), PYR 300 g a.c./ha
  PYR h.e. (%): 27%
[5]; VIOAR, # = 3, second VIOAR block (r265-272), PYR 600 g a.c./ha
  PYR h.e. (%): 34%
[5]; VIOAR, # = 3, second VIOAR block (r265-272), PYR 900 g a.c./ha
  PYR h.e. (%): 47%
Galium aparine; GALAP 14-20 DAA 300 g a.c./ha
  PYR h.e.: 20%
Galium aparine; GALAP 14-20 DAA 600 g a.c./ha
  PYR h.e.: 30%
Galium aparine; GALAP 14-20 DAA 900 g a.c./ha
  PYR h.e.: 35%
Galium aparine; GALAP 24-31 DAA 300 g a.c./ha
  PYR h.e.: 18%
Galium aparine; GALAP 24-31 DAA 600 g a.c./ha
  PYR h.e.: 30%
Galium aparine; GALAP 24-31 DAA 900 g a.c./ha
  PYR h.e.: 38%
Kickxia elatine; KICEL 14-20 DAA 300 g a.c./ha
  PYR h.e.: 0%
Kickxia elatine; KICEL 14-20 DAA 600 g a.c./ha
  PYR h.e.: 0%
Kickxia elatine; KICEL 14-20 DAA 900 g a.c./ha
  PYR h.e.: 0%
Kickxia elatine; KICEL 24-31 DAA 300 g a.c./ha
  PYR h.e.: 0%
Kickxia elatine; KICEL 24-31 DAA 600 g a.c./ha
  PYR h.e.: 0%
Kickxia elatine; KICEL 24-31 DAA 900 g a.c./ha
  PYR h.e.: 0%
Lamium purpureum; LAMPU 14-20 DAA 300 g a.c./ha
  PYR h.e.: 28%
Lamium purpureum; LAMPU 14-20 DAA 600 g a.c./ha
  PYR h.e.: 60%
Lamium purpureum; LAMPU 14-20 DAA 900 g a.c./ha
  PYR h.e.: 65%
Lamium purpureum; LAMPU 24-31 DAA 300 g a.c./ha
  PYR h.e.: 14%
Lamium purpureum; LAMPU 24-31 DAA 600 g a.c./ha
  PYR h.e.: 46%
Lamium purpureum; LAMPU 24-31 DAA 900 g a.c./ha
  PYR h.e.: 67%
Mercurialis annua; MERAN 14-20 DAA 300 g a.c./ha
  PYR h.e.: 48%
Mercurialis annua; MERAN 14-20 DAA 600 g a.c./ha
  PYR h.e.: 78%
Mercurialis annua; MERAN 24-31 DAA 300 g a.c./ha
  PYR h.e.: 10%
Mercurialis annua; MERAN 24-31 DAA 600 g a.c./ha
  PYR h.e.: 33%
Mercurialis annua; MERAN 24-31 DAA 900 g a.c./ha
  PYR h.e.: 80%
Viola arvensis; VIOAR 14-20 DAA 300 g a.c./ha
  PYR h.e.: 31%
Viola arvensis; VIOAR 14-20 DAA 600 g a.c./ha
  PYR h.e.: 34%
Viola arvensis; VIOAR 14-20 DAA 900 g a.c./ha
  PYR h.e.: 50%
